Converted amounts (≈) assume the structure as drawn. “And” between values parts separate entries of the source, which are not always exact repeats. Equal entries are not always repeated.
Tests used:
[1] = test system: CYP3A5 and CYP3A4; settings: preferentially inhibits CYP3A4; cited from earlier work
[2] = test system: CYP3A5; settings: cited from earlier work
[3] = test system: CYP3A4/5; experiment: Clinical midazolam-ketoconazole interaction study; format: in vivo, human; settings: for CLpo (oral clearance) / Cmax /Dose: oral midazolam
[4] = test system: CYP3A4; settings: midazolam is the CYP3A probe, cited from earlier work
[5] = test system: CYP3A5; settings: midazolam is the CYP3A probe, cited from earlier work
[6] = Clinical study control phase: midazolam pharmacokinetics by CYP3A5 genotype; format: in vivo, human; settings: for Clearance Oral GM (90% CI): Observed, single dose of midazolam, blood clearance; for clearance: iv, 0.05 mg/kg, CLsys (systemic clearance), IV midazolam; for clearance / bioavailability / Tmax / half-life / CLpo (oral clearance) / Cmax /Dose: midazolam alone (control); for bioavailability: Fpo (oral bioavailability); for Tmax / CLpo (oral clearance) / Cmax /Dose: oral midazolam; for half-life: t1/2 (terminal half-life); for intestinal availability (FG): midazolam alone
[7] = cited from earlier work
[8] = human, serum, geometric mean, CYP3A5*1/*1 (n=6)
[9] = human, serum, geometric mean, CYP3A5*1/*3 and *1/*6 (n=9)
[10] = human, serum, geometric mean, CYP3A5*3/*3 non-expressers (n=8)
[11] = human, serum, geometric mean, CYP3A5 expressers (n=15)
[12] = human, serum, CYP3A5*3/*7 (n=1)
[13] = geometric mean, CYP3A5*1/*1 (n=6)
[14] = geometric mean, CYP3A5*1/*3 and *1/*6 (n=9)
[15] = geometric mean, CYP3A5 expressers (n=15)
[16] = after 200 mg KTZ, CYP3A5*3/*7 (n=1)
[17] = after 400 mg KTZ, CYP3A5*3/*7 (n=1)
[18] = geometric mean, after 200 mg KTZ, CYP3A5*3/*3 non-expressers
[19] = geometric mean, after 200 mg KTZ, CYP3A5 expressers
[20] = geometric mean, after 400 mg KTZ, CYP3A5*1/*1
[21] = geometric mean, after 400 mg KTZ, CYP3A5*1/*3 and *1/*6
[22] = geometric mean, after 400 mg KTZ, CYP3A5*3/*3 non-expressers
[23] = geometric mean, after 400 mg KTZ, CYP3A5 expressers

## CCC(C)n1ncn(-c2ccc(N3CCN(c4ccc(OCC5COC(Cn6cncn6)(c6ccc(Cl)cc6Cl)O5)cc4)CC3)cc2)c1=O (centres unmarked) [Itraconazole]
[1]
  Ki,3A5/Ki,3A4: ≥ 7

## OC(Cn1cncn1)(Cn1cncn1)c1ccc(F)cc1F [fluconazole]
[2]
  changes of midazolam metabolites formation across CYP3A5 genotypes: did not result in differential changes

## CC(=O)N1CCN(c2ccc(OCC3COC(Cn4ccnc4)(c4ccc(Cl)cc4Cl)O3)cc2)CC1 (centres unmarked) [ketoconazole]
[3]; ketoconazole 200 mg or 400 mg
  difference in the AUC0–10hr of ketoconazole between the 6th and 7th day of dosing: no significant difference
[3]; ketoconazole 200 and 400 mg doses
  inhibition of gut CYP3A: almost complete inhibition
[4]
  Ki towards CYP3A4: […]
[4]; read-out: Ki towards CYP3A4
  Ki: […]
[5]
  Ki towards CYP3A5: […]
[5]; read-out: Ki towards CYP3A5
  Ki: […]

## Cc1ncc2n1-c1ccc(Cl)cc1C(c1ccccc1F)=NC2 [midazolam]
[6]; CYP3A5 expressers
  Clearance Oral GM (90% CI): 140 (114.5–171.3) L/hr
  intestinal availability (FG): 0.35±0.09
[6]; CYP3A5 non-expressers
  Clearance Oral GM (90% CI): 105 (83.5–131.5) L/hr
  intestinal availability (FG): 0.33±0.06
[6]; [8]
  clearance: 540 mL/min
  half-life: 2.76 h
[6]; [9]
  clearance: 550 mL/min
  half-life: 2.75 h
[6]; [10]
  clearance: 402 mL/min
  half-life: 3.05 h
[6]; [11]
  clearance: 547 mL/min
  half-life: 2.75 h
[6]; [12]
  clearance: 318 mL/min
  half-life: 5.25 h
[6]; human, serum, po, 4 mg, geometric mean, CYP3A5*1/*1 (n=6)
  bioavailability: 22%
[6]; human, serum, po, 4 mg, geometric mean, CYP3A5*1/*3 and *1/*6 (n=9)
  bioavailability: 23%
[6]; human, serum, po, 4 mg, geometric mean, CYP3A5*3/*3 non-expressers (n=8)
  bioavailability: 26%
[6]; human, serum, po, 4 mg, geometric mean, CYP3A5 expressers (n=15)
  bioavailability: 23%
[6]; human, serum, po, 4 mg, CYP3A5*3/*7 (n=1)
  bioavailability: 36%
[6]; human, serum, po, 4 mg, Tmax, CYP3A5*3/*7 (n=1)
  Tmax: 1 h
[6]; [13]
  CLpo (oral clearance): 144 L/h
  Cmax /Dose: 1.5 ng/mL
[6]; [14]
  CLpo (oral clearance): 137 L/h
  Cmax /Dose: 1.6 ng/mL
[6]; [15]
  CLpo (oral clearance): 140 ± 66 L/h and 140 L/h
  Cmax /Dose: 1.6 ± 0.6 ng/mL and 1.6 ng/mL
[6]; CYP3A5*3/*7 (n=1)
  CLpo (oral clearance): 55.7 L/h
  Cmax /Dose: 3.4 ng/mL
[6]; CYP3A5 expressers (n=15)
  Tmax: 0.7 h
[6]; this study
  inter-individual variability for the CLsys: 2.3 fold
  inter-individual variability of CLpo: 7.0 fold
[3]; [16]
  CLpo (oral clearance): 4.6 L/h
  Cmax /Dose: 18.1 ng/mL
[3]; [17]
  CLpo (oral clearance): 2.7 L/h
  Cmax /Dose: 21.2 ng/mL
[3]; geometric mean, after 200 mg KTZ, CYP3A5*1/*1
  Cmax /Dose: 9.6 ng/mL
[3]; geometric mean, after 200 mg KTZ, CYP3A5*1/*3 and *1/*6
  Cmax /Dose: 7.9 ng/mL
[3]; [18]
  CLpo (oral clearance): 7.0 ± 2.0 L/h and 7.0 L/h
  Cmax /Dose: 12.3 ng/mL
[3]; [19]
  CLpo (oral clearance): 13.3 ± 5.6 L/h
  Cmax /Dose: 8.5 ng/mL
[3]; [20]
  CLpo (oral clearance): 8.2 L/h
  Cmax /Dose: 9.4 ng/mL
[3]; [21]
  CLpo (oral clearance): 8.6 L/h
  Cmax /Dose: 8.9 ng/mL
[3]; [22]
  CLpo (oral clearance): 4.9 ± 1.3 L/h and 4.9 L/h
  Cmax /Dose: 15.8 ng/mL
[3]; [23]
  CLpo (oral clearance): 8.4 ± 3.5 L/h and 8.4 L/h
  Cmax /Dose: 9.1 ng/mL
[7]; derived using plasma clearance and hepatic plasma flow
  midazolam FG in SimCYP: 0.57
[7]; other studies
  inter-individual variability of midazolam clearance in other studies: 3.3- to 5.2 fold
